Assay results: US9133209B2, “Insecticidal 4-amino-thieno[2,3-D]-pyrimidine compounds and methods of their use” (priority 2009, dated 2015)

Columns and labels:
Format in all cases: in vivo
[1] = tested on: Cowpea Aphid (aphis craccivora); test: Cowpea aphid spray test on potted cowpea plants; conditions: for mortality at 300 ppm: Aphis craccivora, cowpea aphid on potted cowpea plants, sprayed, assessed after 24, 72 and 120 hours, read-out: mortality in comparison with untreated controls; for activity in [%]: Cow pea aphid, 300 ppm, scale 0% no biological activity to 100% total control
Description: (§1) Under general conditions, if not otherwise specified, most test solutions are prepared as follow: The active compound is dissolved at the desired concentration in a mixture of 1:1 (vol:vol) distilled water:acetone. The test solution is prepared at the day of use.
(§2) Test solutions are prepared in general at concentrations of 1000 ppm, 500 ppm, 300 ppm, 100 ppm and 30 ppm (wt/vol).
B.1 Cowpea Aphid (aphis craccivora)
Potted cowpea plants colonized with approximately 100-150 aphids of various stages were sprayed after the pest population has been recorded. Population reduction was assessed after 24, 72, and 120 hours.

[2] = tested on: Yellow Fever Mosquito (Aedes aegypti) neonate larvae; test: Yellow fever mosquito larval motility assay in microtiter plates
Description: B.4. Activity Against Yellow Fever Mosquito (Aedes aegypti)
The compounds were formulated in 100% DMSO and were tested in microtiter plates containing 180 ul 1× Luria Broth media and 10 neonate A. aegypti larvae. The efficacy of a compound was determined based on the motility of the larvae as compared to average motility of control wells containing DMSO only. Compounds with >80% reduction in motility at a concentration of 10 ppm were tested in a dose response assay to determine EC50 values.

[3] = tested on: Rice Brown Plant Hopper (Nilaparvata lugens); test: Rice brown plant hopper test on sprayed rice seedlings; conditions: for mortality at 300 ppm: Nilaparvata lugens adults on sprayed rice seedlings, 72 hours, read-out: mortality in comparison with untreated controls; for activity in [%]: Nilaparvata lugens, 300 ppm, scale 0% no biological activity to 100% total control
Description: B.3 Rice Brown Plant Hopper (Nilaparvata lugens)
Rice seedlings were cleaned and washed 24 hours before spraying. The active compounds were formulated in 50:50 acetone:water (vol:vol) and 0.1% vol/vol surfactant (EL 620) was added. Potted rice seedlings were sprayed with 5 ml test solution, air dried, placed in cages and inoculated with 10 adults. Treated rice plants were kept at about 28-29° C. and relative humidity of about 50-60%. Percent mortality was recorded after 72 hours.

[4] = tested on: Spider Mite (Tetranychus spp.); test: Spider mite contact/oral activity on potted cotton plants; conditions: for activity in [%]: Spider mite, 300 ppm, scale 0% no biological activity to 100% total control; for mortality at 300 ppm: Tetranychus, po, spider mites on potted cotton plants, sprayed, assessed after 24, 72 and 120 hours, read-out: mortality in comparison with untreated controls
Description: as §1, §2
B.2 Spider Mite (Tetranychus spp.)
Potted cotton plants colonized with approximately 50 mites of various stages are sprayed after the pest population has been recorded. Population reduction (or increase) after 24, 72, and 120 hours is assessed.

[5] = tested on: Ctenocephalides felis fleas; test: Rat ectoparasiticide model (flea infestation, topical treatment); conditions: for Efficacy in [%]: Ctenocephalides felis on rats; for reduction of flea counts (% efficacy): rats, topical, 48 hours post-treatment, average, n=2 replicas
Description: B.5. Activity in Rat Ectoparasiticide Model
Rats were infested with 50 Ctenocephalides felis fleas. Approximately twenty four hours later rats (3 per group) were treated topically with test compounds at doses of 20 mg/kg or 10 mg/kg body weight. Placebo (vehicle) and positive control groups were included in each study. Forty eight hours post-treatment, fleas were collected from each rat using a flea comb. The percent efficacy per treatment group was calculated using the following formula: % efficacy=100×(C−T)/C
where C is the geometric mean of live fleas recovered in the placebo group and T is the geometric mean of live fleas recovered in the respective treatment group.

Row | SMILES | mortality at 300 ppm [1] [%] | activity in [%] [1] [%] | activity in [%] [3] [%] | activity in [%] [4] [%] | other results
1 | CC(Nc1ncnc2scc(Cl)c12)c1ccc(SC(F)F)cc1 (centres unmarked) [C.2] | > 80 | – | – | – | –
2 | CC(Nc1ncnc2scc(Cl)c12)c1ccc(SC(F)(F)F)cc1 (centres unmarked) [C.3] | > 80 | 100 | 100 | 90 | EC50 (section headed 'Activity at 1 [ppm]') [2]: 0.29 ppm; mortality at 300 ppm [3]: > 80%; mortality at 300 ppm [4]: > 80%
3 | CC(Nc1ncnc2scc(Cl)c12)c1ccc([S+]([O-])C(F)(F)F)cc1 (centres unmarked) [C.4] | > 80 | – | – | – | –
4 | C[C@H](Nc1ncnc2scc(Cl)c12)c1ccc(OC(F)(F)F)cc1 [CE.2, reference compound] | – | – | – | 50 | Efficacy in [%] ([5]; dosage 10 mg/kg): 70%; Efficacy in [%] ([5]; dosage 20 mg/kg): 82%
5 | C[C@H](Nc1ncnc2scc(Cl)c12)c1ccc(SC(F)(F)F)cc1 [C.3-S, (5-Chloro-thieno[2,3-d]pyrimidin-4-yl)-[(S)-1-(4-trifluoromethylsulfanyl-phenyl)-ethyl]-amine] | – | 100 | 100 | 90 | Efficacy in [%] ([5]; dosage 10 mg/kg): 71%; Efficacy in [%] ([5]; dosage 20 mg/kg): 89%; reduction of flea counts (% efficacy) ([5]; 10 mg/kg): 71%; reduction of flea counts (% efficacy) ([5]; 20 mg/kg): 89%; EC50 (section headed 'Activity at 1 [ppm]') [2]: 0.21 ppm
6 | CSc1ccc(C(C)Nc2ncnc3scc(Cl)c23)cc1 (centres unmarked) [CE.1, reference compound] | – | – | 0 | – | –
7 | FC(F)(F)Sc1ccc(CNc2ncnc3scc(Cl)c23)cc1 [C.1] | > 80 | – | – | – | –
8 | CC(Nc1ncnc2scc(Cl)c12)c1ccc(SCC(F)(F)F)cc1 (centres unmarked) [C.5] | > 80 | – | – | – | –
9 | C[C@@H](Nc1ncnc2scc(Cl)c12)c1ccc(SC(F)(F)F)cc1 [C.3-R] | – | 0 | 0 | 0 | –
10 | CC(Nc1ncnc2scc(Cl)c12)c1ccc(SC(F)(F)C(F)(F)F)cc1 (centres unmarked) [C.6] | > 80 | – | – | – | mortality at 300 ppm [3]: > 80%; mortality at 300 ppm [4]: > 80%
